Assay results taken from ChEMBL document CHEMBL5634117 (Eur J Med Chem, 2023).

What was measured:
HOP-92 = test: Growth inhibition of human HOP-92 cells assessed as reduction in cell viability measured after 48 hrs by SRB assay; assay type: functional
OVCAR-5 = test: Growth inhibition of human OVCAR-5 cells assessed as reduction in cell viability measured after 48 hrs by SRB assay; assay type: functional
OVCAR-3 = test: Growth inhibition of human OVCAR-3 cells assessed as reduction in cell viability measured after 48 hrs by SRB assay; assay type: functional
OVCAR-4 = test: Growth inhibition of human OVCAR-4 cells assessed as reduction in cell viability measured after 48 hrs by SRB assay; assay type: functional
UACC-62 = test: Growth inhibition of human UACC-62 cells assessed as reduction in cell viability measured after 48 hrs by SRB assay; assay type: functional
MCF7 = test: Growth inhibition of human MCF7 cells assessed as reduction in cell viability measured after 48 hrs by SRB assay; assay type: functional
UACC-257 = test: Growth inhibition of human UACC-257 cells assessed as reduction in cell viability measured after 48 hrs by SRB assay; assay type: functional
NCI-H226 = test: Growth inhibition of human NCI-H226 cells assessed as reduction in cell viability measured after 48 hrs by SRB assay; assay type: functional
Malme-3M = test: Growth inhibition of human Malme-3M cells assessed as reduction in cell viability measured after 48 hrs by SRB assay; assay type: functional
NCI/ADR-RES = test: Growth inhibition of human NCI/ADR-RES cells assessed as reduction in cell viability measured after 48 hrs by SRB assay; assay type: functional
NCI-H522 = test: Growth inhibition of human NCI-H522 cells assessed as reduction in cell viability measured after 48 hrs by SRB assay; assay type: functional
NCI-H23 = test: Growth inhibition of human NCI-H23 cells assessed as reduction in cell viability measured after 48 hrs by SRB assay; assay type: functional
SF-268 = test: Growth inhibition of human SF-268 cells assessed as reduction in cell viability measured after 48 hrs by SRB assay; assay type: functional
SK-MEL-2 = test: Growth inhibition of human SK-MEL-2 cells assessed as reduction in cell viability measured after 48 hrs by SRB assay; assay type: functional
CAKI-1 = test: Growth inhibition of human CAKI-1 cells assessed as reduction in cell viability measured after 48 hrs by SRB assay; assay type: functional
UO-31 = test: Growth inhibition of human UO-31 cells assessed as reduction in cell viability measured after 48 hrs by SRB assay; assay type: functional
MDA-MB-468 = test: Growth inhibition of human MDA-MB-468 cells assessed as reduction in cell viability measured after 48 hrs by SRB assay; assay type: functional
KM12 = test: Growth inhibition of human KM12 cells assessed as reduction in cell viability measured after 48 hrs by SRB assay; assay type: functional
TK-10 = test: Growth inhibition of human TK-10 cells assessed as reduction in cell viability measured after 48 hrs by SRB assay; assay type: functional
EKVX = test: Growth inhibition of human EKVX cells assessed as reduction in cell viability measured after 48 hrs by SRB assay; assay type: functional
HOP-62 = test: Growth inhibition of human HOP-62 cells assessed as reduction in cell viability measured after 48 hrs by SRB assay; assay type: functional
DU-145 = test: Growth inhibition of human DU-145 cells assessed as reduction in cell viability measured after 48 hrs by SRB assay; assay type: functional
Hs-578T = test: Growth inhibition of human Hs-578T cells assessed as reduction in cell viability measured after 48 hrs by SRB assay; assay type: functional
SNB-19 = test: Growth inhibition of human SNB-19 cells assessed as reduction in cell viability measured after 48 hrs by SRB assay; assay type: functional
SK-MEL-5 = test: Growth inhibition of human SK-MEL-5 cells assessed as reduction in cell viability measured after 48 hrs by SRB assay; assay type: functional
IGROV-1 = test: Growth inhibition of human IGROV-1 cells assessed as reduction in cell viability measured after 48 hrs by SRB assay; assay type: functional
HT-29 = test: Growth inhibition of human HT-29 cells assessed as reduction in cell viability measured after 48 hrs by SRB assay; assay type: functional
SW-620 = test: Growth inhibition of human SW620 cells assessed as reduction in cell viability measured after 48 hrs by SRB assay; assay type: functional
SF-295 = test: Growth inhibition of human SF-295 cells assessed as reduction in cell viability measured after 48 hrs by SRB assay; assay type: functional
M14 = test: Growth inhibition of human M14 cells assessed as reduction in cell viability measured after 48 hrs by SRB assay; assay type: functional
SNB-75 = test: Growth inhibition of human SNB-75 cells assessed as reduction in cell viability measured after 48 hrs by SRB assay; assay type: functional
PC-3 = test: Growth inhibition of human PC-3 cells assessed as reduction in cell viability measured after 48 hrs by SRB assay; assay type: functional
COLO 205 = test: Growth inhibition of human COLO 205 cells assessed as reduction in cell viability measured after 48 hrs by SRB assay; assay type: functional
SK-MEL-28 = test: Growth inhibition of human SK-MEL-28 cells assessed as reduction in cell viability measured after 48 hrs by SRB assay; assay type: functional
HL-60(TB) = test: Growth inhibition of human HL-60(TB) cells assessed as reduction in cell viability measured after 48 hrs by SRB assay; assay type: functional
[1] = molecular target: Mitogen-activated protein kinase 9 (Homo sapiens, UniProt P45984); test: Inhibition of human JNK2 at 10 uM in presence of ATP relative to control
LOX IMVI = test: Growth inhibition of human LOX IMVI cells assessed as reduction in cell viability measured after 48 hrs by SRB assay; assay type: functional
BT-549 = test: Growth inhibition of human BT-549 cells assessed as reduction in cell viability measured after 48 hrs by SRB assay; assay type: functional
MDA-MB-435 = test: Growth inhibition of human MDA-MB-435 cells assessed as reduction in cell viability measured after 48 hrs by SRB assay; assay type: functional
MOLT-4 = test: Growth inhibition of human MOLT-4 cells assessed as reduction in cell viability measured after 48 hrs by SRB assay; assay type: functional
[2] = molecular target: Mitogen-activated protein kinase 10 (Homo sapiens, UniProt P53779); test: Inhibition of human JNK3 at 10 uM in presence of ATP relative to control
ACHN = test: Growth inhibition of human ACHN cells assessed as reduction in cell viability measured after 48 hrs by SRB assay; assay type: functional
SN12C = test: Growth inhibition of human SN12C cells assessed as reduction in cell viability measured after 48 hrs by SRB assay; assay type: functional
MDA-MB-231 = test: Growth inhibition of human MDA-MB-231 cells assessed as reduction in cell viability measured after 48 hrs by SRB assay; assay type: functional
SR = test: Growth inhibition of human SR cells assessed as reduction in cell viability measured after 48 hrs by SRB assay; assay type: functional
U-251 = test: Growth inhibition of human U-251 cells assessed as reduction in cell viability measured after 48 hrs by SRB assay; assay type: functional

Sequence of Mitogen-activated protein kinase 10 (P53779 whole entry): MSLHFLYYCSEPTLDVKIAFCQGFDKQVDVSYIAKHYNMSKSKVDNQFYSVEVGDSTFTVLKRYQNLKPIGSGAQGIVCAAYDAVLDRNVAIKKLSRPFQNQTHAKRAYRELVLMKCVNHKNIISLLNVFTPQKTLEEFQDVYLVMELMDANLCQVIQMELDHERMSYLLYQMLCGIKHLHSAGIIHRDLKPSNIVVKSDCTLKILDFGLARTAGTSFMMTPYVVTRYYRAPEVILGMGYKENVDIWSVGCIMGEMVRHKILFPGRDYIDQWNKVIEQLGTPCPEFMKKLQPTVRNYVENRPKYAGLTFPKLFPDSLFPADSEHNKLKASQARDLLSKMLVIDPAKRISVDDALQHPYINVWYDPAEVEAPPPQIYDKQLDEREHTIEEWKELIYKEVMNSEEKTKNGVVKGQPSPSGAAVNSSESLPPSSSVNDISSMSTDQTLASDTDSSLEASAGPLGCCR
Sequence of Mitogen-activated protein kinase 9 (P45984 whole entry, looked up): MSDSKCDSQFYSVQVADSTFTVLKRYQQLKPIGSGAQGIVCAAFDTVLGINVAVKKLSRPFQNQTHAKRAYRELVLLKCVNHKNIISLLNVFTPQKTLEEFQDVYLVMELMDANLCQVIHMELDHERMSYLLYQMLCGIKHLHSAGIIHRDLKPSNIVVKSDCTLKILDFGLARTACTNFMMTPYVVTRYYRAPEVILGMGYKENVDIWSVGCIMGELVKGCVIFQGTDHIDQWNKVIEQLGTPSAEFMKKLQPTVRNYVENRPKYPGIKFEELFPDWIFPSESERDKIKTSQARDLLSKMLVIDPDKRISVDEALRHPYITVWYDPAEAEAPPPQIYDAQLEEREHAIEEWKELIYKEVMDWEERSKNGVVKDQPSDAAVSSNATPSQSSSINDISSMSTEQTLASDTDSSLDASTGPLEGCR

## CC(C)(C)n1cc(-c2ccnc(NCCCNS(=O)(=O)c3cccc4ccccc34)c2)c(-c2cccc(O)c2)n1
HOP-92
  GI50: 1710 nM
OVCAR-5
  GI50: 1980 nM
OVCAR-3
  GI50: 2060 nM
OVCAR-4
  GI50: 1920 nM
UACC-62
  GI50: 1670 nM
MCF7
  GI50: 1910 nM
UACC-257
  GI50: 2070 nM
NCI-H226
  GI50: 1970 nM
Malme-3M
  GI50: 1510 nM
NCI/ADR-RES
  GI50: 1850 nM
NCI-H522
  GI50: 1990 nM
NCI-H23
  GI50: 1780 nM
SF-268
  GI50: 2770 nM
SK-MEL-2
  GI50: 1880 nM
CAKI-1
  GI50: 2490 nM
UO-31
  GI50: 2260 nM
MDA-MB-468
  GI50: 2040 nM
KM12
  GI50: 2340 nM
TK-10
  GI50: 2850 nM
EKVX
  GI50: 2130 nM
HOP-62
  GI50: 1830 nM
DU-145
  GI50: 2650 nM
Hs-578T
  GI50: 1890 nM
SNB-19
  GI50: 2630 nM
SK-MEL-5
  GI50: 1520 nM
IGROV-1
  GI50: 2140 nM
HT-29
  GI50: 1270 nM
SW-620
  GI50: 1810 nM
SF-295
  GI50: 1800 nM
M14
  GI50: 1680 nM
SNB-75
  GI50: 1880 nM
PC-3
  GI50: 1850 nM
COLO 205
  GI50: 1890 nM
SK-MEL-28
  GI50: 1670 nM
HL-60(TB)
  GI50: 2680 nM
[1]
  inhibition: 99.1%
LOX IMVI
  GI50: 1730 nM
BT-549
  GI50: 1840 nM
MDA-MB-435
  GI50: 1760 nM
MOLT-4
  GI50: 2000 nM
[2]
  inhibition: 98.7%
ACHN
  GI50: 2700 nM
SN12C
  GI50: 1730 nM
MDA-MB-231
  GI50: 2320 nM
SR
  GI50: 1400 nM
U-251
  GI50: 1730 nM

## CC(C)(C)n1cc(-c2ccnc(NCCCNS(=O)(=O)c3ccc(Br)cc3)c2)c(-c2cccc(O)c2)n1
HOP-92
  GI50: 1560 nM
OVCAR-5
  GI50: 1870 nM
OVCAR-3
  GI50: 2150 nM
OVCAR-4
  GI50: 1910 nM
UACC-62
  GI50: 1590 nM
MCF7
  GI50: 1880 nM
UACC-257
  GI50: 2010 nM
NCI-H226
  GI50: 2310 nM
Malme-3M
  GI50: 1670 nM
NCI/ADR-RES
  GI50: 2210 nM
NCI-H522
  GI50: 2130 nM
NCI-H23
  GI50: 1830 nM
SF-268
  GI50: 2400 nM
SK-MEL-2
  GI50: 2130 nM
CAKI-1
  GI50: 2160 nM
UO-31
  GI50: 1660 nM
MDA-MB-468
  GI50: 2100 nM
KM12
  GI50: 2110 nM
TK-10
  GI50: 2510 nM
EKVX
  GI50: 1950 nM
HOP-62
  GI50: 2050 nM
DU-145
  GI50: 2100 nM
Hs-578T
  GI50: 2240 nM
SNB-19
  GI50: 2110 nM
SK-MEL-5
  GI50: 1520 nM
IGROV-1
  GI50: 1910 nM
HT-29
  GI50: 1420 nM
SW-620
  GI50: 1830 nM
SF-295
  GI50: 1710 nM
M14
  GI50: 1780 nM
SNB-75
  GI50: 1760 nM
PC-3
  GI50: 1600 nM
COLO 205
  GI50: 1850 nM
SK-MEL-28
  GI50: 1790 nM
HL-60(TB)
  GI50: 2720 nM
[1]
  inhibition: 99.3%
LOX IMVI
  GI50: 1770 nM
BT-549
  GI50: 1500 nM
MDA-MB-435
  GI50: 1820 nM
MOLT-4
  GI50: 2300 nM
[2]
  inhibition: 99.2%
ACHN
  GI50: 1990 nM
SN12C
  GI50: 1610 nM
MDA-MB-231
  GI50: 1740 nM
SR
  GI50: 2000 nM
U-251
  GI50: 1650 nM
